Measured values published in publication PMC7377239, “Cardiovascular Effects of Polychlorinated Biphenyls and Their Major Metabolites” (Environmental Health Perspectives, 2020).
Where a name gives a salt, the structure may show the parent alone. Read-outs that look alike come from different tables or passages of the source.

Key:
HUVECs = assay: High-content imaging cytotoxicity in HUVECs, 24 h; assay type: cell-based, human; settings: Homo sapiens, HUVEC, 24 h, HUVEC, 24 hr
Procedure, shortened: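 Point-of-departure values derive from four-parameter logistic fits of vehicle-normalized imaging phenotypes (Hoechst 33342, MitoTracker Orange, calcein AM). The fits follow 24 h exposure of HUVEC monolayers at 37°C and 5% CO2, with a top tested concentration of 100μM.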

[1] = test system: iCell endothelial cells (human iPSC-derived ECs); assay: High-content imaging cytotoxicity in iCell endothelial cells, 24 h; assay type: cell-based; settings: Homo sapiens, Endothelial cell, endothelial cells (endo), 24 hr
Procedure, shortened: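 Human iPSC-derived endothelial cells (passages 1–5) were grown to a fibronectin-coated monolayer, then exposed 24 h at 37 °C with 0.5% DMSO vehicle. Staining was Hoechst 33342, MitoTracker Orange and calcein AM, read by high-content imaging. Point of departure came from 4-parameter logistic fits, with a 1-SD vehicle cutoff and 100 µM as the top concentration.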

Measured: minimal effective concentration

O=S(=O)(O)Oc1cc(-c2ccccc2)ccc1Cl [3-PCB 3 sulfate]
100 µM: HUVECs; cyto, read-out: POD huvec.cyto.24hr | HUVECs; mito, read-out: POD huvec.mito.24hr | HUVECs; mitoint, read-out: POD huvec.mitoint.24hr | HUVECs; nma, read-out: POD huvec.nma.24hr | HUVECs; tc, read-out: POD huvec.tc.24hr | [1]; cyto, read-out: POD endo.cyto.24hr | [1]; mito, read-out: POD endo.mito.24hr | [1]; mitoint, read-out: POD endo.mitoint.24hr | [1]; nma, read-out: POD endo.nma.24hr | [1]; tc, read-out: POD endo.tc.24hr
